Our source for the Ki, EC50 and Emax values is patent publication US20080262228A1, “Metabolites of 5-fluoro-8- quinoline and methods of preparation and uses thereof” (Wyeth, priority 2006, published 2008).

Counter-ions that a name gives are not always drawn.

For test [1], the target named is T1, human 5-HT1A receptor (Homo sapiens, UniProt P08908).
T1 construct: expressed in transfected cells
T1 sequence (P08908 1-422): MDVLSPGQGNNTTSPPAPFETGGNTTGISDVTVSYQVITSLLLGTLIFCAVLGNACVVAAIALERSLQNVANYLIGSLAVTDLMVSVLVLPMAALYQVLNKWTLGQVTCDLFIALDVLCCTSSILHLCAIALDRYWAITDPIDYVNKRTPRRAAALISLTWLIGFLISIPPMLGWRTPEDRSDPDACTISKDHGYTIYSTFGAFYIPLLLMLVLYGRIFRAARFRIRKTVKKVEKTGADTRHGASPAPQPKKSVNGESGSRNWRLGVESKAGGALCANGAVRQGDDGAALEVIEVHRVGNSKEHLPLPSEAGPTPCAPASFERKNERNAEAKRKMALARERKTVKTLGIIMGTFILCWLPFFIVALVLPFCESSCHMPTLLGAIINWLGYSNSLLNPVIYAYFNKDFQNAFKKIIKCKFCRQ
The test is described as follows: [3H]-8-OH-DPAT displacement radioligand binding. Particulars: h5-HT1A.CHO cell membranes, read-out: Ki value for 5-HT1A affinity. As to the method: (§1) A Ki value is reported. The in vitro functional activity of the compounds of this invention is determined by measuring the effect of the compound on forskolin-induced adenylate cyclase activity in the same cell line. 5-HT1A agonists, such as the full agonist 8-OH-DPAT, inhibit forskolin-induced adenylate cyclase activity, as measured by a reduction in cAMP levels. The compounds of this invention display agonist activity as shown by its ability to induce a decrease in cAMP levels. An EC50 value is reported and the maximum response of the test compound is reported as the percent of a full agonist response (the maximum response obtained with the full agonist 8-OH-DPAT=100%). This percent is expressed as an Emax value.
The PCR cloning of the human 5-HT1A receptor subtype from a human genomic library has been described previously (Chanda et al., Mol. Pharmacol., 43:516 (1993)). A stable Chinese hamster ovary cell line expressing the human 5-HT1A receptor subtype (h5-HT1A.CHO cells) was employed throughout this study. Cells were maintained in DMEM supplemented with 10% fetal calf serum, non-essential amino acids and penicillin/streptomycin.
Radioligand binding assays can be performed as described in Dunlop, J. et al., J. Pharmacol. and Toxicol. Methods 40: 47-55 (1998). […] Non-specific binding is determined in the presence of 10 μM 5HT. […]

Test [2] has as its target T1, human 5-HT1A receptor. Briefly: Forskolin-induced adenylate cyclase (cAMP) functional assay in h5-HT1A.CHO cells. The test is classed as cell-based. The procedure:
as §1
The PCR cloning of the human 5-HT1A receptor subtype from a human genomic library has been described previously (Chanda et al., Mol. Pharmacol., 43:516 (1993)). A stable Chinese hamster ovary cell line expressing the human 5-HT1A receptor subtype (h5-HT1A.CHO cells) was employed throughout this study. […]
Measurements can be performed as described in Dunlop, J. et al., supra. […] Functional activity is assessed by treating the cells with forskolin (1 uM final concentration) followed immediately by test compound (6 different concentrations) for an additional 10 min. at 37° C. […]

In general, Ki refers to a measure of affinity in units of concentration, obtained from inhibition or displacement. As a reminder, the EC50 is the concentration at which the effect is half-maximal. Broadly, the Emax is the maximal effect, on the per cent scale that the assay sets. `Oc1cc(N2CCN(C3CCN(c4ccc(F)c5cccnc45)CC3)CC2)c2ncccc2c1` [Metabolite M21, 8-{4-[1-(5-fluoroquinolin-8-yl)piperidin-4-yl]piperazin-1-yl}quinolin-6-ol trihydrochloride]: the Ki at human 5-HT1A receptor [1] was 0.47 nM. Further, the half-maximal effective concentration (EC50) on human 5-HT1A receptor [2] (decrease of forskolin-induced cAMP, read-out: EC50 value for in vitro agonist activity) stood at 0.39 nM. Besides, the Emax at human 5-HT1A receptor [2] (percent of full agonist response (8-OH-DPAT=100%)) was found to be 92%.
